Measurements taken from patent US6696407B1, “Huntington's disease treatment comprising administering aldose reductase inhibitors to increase striatal CNTF” (The Regents of the University of California, priority 1997, dated 2004).
“Also recorded” adds a separate entry of the source.

B1: CNTF: member of the neuropoietic cytokine family, a protein of 200 amino acids (protein, UniProt P26441 1-200, looked up)
Ciliary neurotrophic factor: MAFTEHSPLTPHRRDLCSRSIWLARKIRSDLTALTESYVKHQGLNKNINLDSADGMPVASTDQWSELTEAERLQENLQAYRTFHVLLARLLEDQQVHFTPTEGDFHQAIHTLLLQVAAFAYQIEELMILLEYKIPRNEADGMPINVGDGGLFEKKLWGLKVLQELSQWTVRSIHDLRFISSHQTGIPARGSHYIANNKKM

Key:
[1] = test system: CNTF; test: Striatal CNTF levels by ELISA; assay type: in vivo, rat; conditions: adult rats, oral 50 mg/kg/day for two months
Description: CNTF protein was determined with an ELISA that utilizes a monoclonal capture antibody which recognizes a non-C-terminal epitope on both rat and human CNTF (Regeneron, Tarrytown, N.Y.). The captured CNTF was recognized by a polyclonal rabbit anti-rCNTF reporter antibody. An alkaline phosphatase-tagged goat anti-rabbit IgG was used to generate the signal. In practice, 96-well Immulon plates were coated with capture antibody overnight, then blocked and washed. After overnight incubation of standards and samples, plates were washed and reporter antibody added. Following final washes, the reaction was developed using the GIBCO BRL ELISA amplification system substrate and amplifier. The reaction was stopped with 0.5 N H2SO4 and the plates read at two wavelengths (490 nm and 650 nm).
ARIs Toirestat and Ponalrestat were orally administered to adult rats at a dose of 50 mg/kg/day for two months as described in Example 1 and in Mizisin et al (1997) Diabetes 46: 647-652. For each rat, the left and right striatum were dissected and combined for homogenization in phosphate buffered saline. CNTF levels in extract preparations were then measured by ELISA, as described in Example 1. Four rats served as controls, and five rats each received Tolrestat and Ponalrestat. Five ELISA assays were run for each rat and one mean value derived for each rat.

[2] = Dittrich et al. (1994); cited from earlier work

Molecule	Increase in striatal CNTF activity level versus control group [1]	Plasma half-life [2] [min]
COc1ccc2c(C(=S)N(C)CC(=O)O)cccc2c1C(F)(F)F [Tolrestat, N-[[6-methoxy-5-(trifluoromethyl)-1-naphthalenyl]thioxomethyl]-N-methylglycine]	significantly increased; also recorded: approximately two-fold	–
B1	–	2.9
